Assay results: ChEMBL document CHEMBL3301361, “Experimental in vitro DMPK and physicochemical data on a set of publicly disclosed compounds”
≈ marks a conversion by molar mass, not a printed value.

experiment: physchem; settings: pH 7.4 buffer

Compound | solubility thermodynamic [µM]
O=C(NNC(=O)c1ccccc1)c1ccccc1 | 182 (≈ 43.7 µg/mL)
C[C@H](Oc1cccc2ncnc(Nc3ccc4c(cnn4Cc4cccc(F)c4)c3)c12)C(=O)N(C)C | 8.1 (≈ 3.92 µg/mL)
Cc1cccc2c3c([nH]c12)CCN(C(=O)[C@@H]1CCCC[C@H]1C(=O)NC1(C#N)CC1)C3 | 513 (≈ 207 µg/mL)
COc1cc2c(Nc3ccc(Cl)cc3F)ncnc2cc1OC/C=C/CN1CCCC1 | 759 (≈ 336 µg/mL)
COc1cc2ncnc(Nc3cccc(Cl)c3F)c2cc1CN(C)CC(N)=O | 13.2 (≈ 5.33 µg/mL)
O=C(O)c1cc2ccccc2n1Cc1cccc(Cl)c1 | 1200 (≈ 344 µg/mL)
COc1cc2ncnc(Oc3ccc(CC(=O)Nc4ccc(N(C)C)cn4)cc3)c2cc1OC | 1.6 (≈ 0.735 µg/mL)
O=C(O)CCC[C@@H]1c2ccccc2C[C@H]1NC(=O)c1cc2cc(F)ccc2[nH]1 | 85.1 (≈ 32.4 µg/mL)
COc1ccc([C@H](CC(=O)O)N2CCN(CCCc3ccc4c(n3)NCCC4)C2=O)cn1 | 2.5 (≈ 1.1 µg/mL)
COc1cc(Nc2cc(Oc3ccc(C)nc3C)ccn2)cc(OC)c1OC | 6.8 (≈ 2.59 µg/mL)
COC(=O)C1=C(C#N)NC(C)=C(C(=O)OC(C)C)C1c1cccc([N+](=O)[O-])c1 (stereo unspecified) [NILVADIPINE] | 2.1 (≈ 0.809 µg/mL)
O=C(c1ccc(F)cc1)C1CCN(C(=O)c2ccccc2)CC1 | 200 (≈ 62.1 µg/mL)
N=C(N)c1ccc2cc(C(=O)Nc3ccc(CN)cc3)cc(Nc3ncccn3)c2c1 | 151 (≈ 62.3 µg/mL)
Cc1nc(O)c2cc(-c3ccccc3)sc2n1 | 1.8 (≈ 0.436 µg/mL)
Cc1ccc(C(=O)C2CCN(S(=O)(=O)c3c(C)noc3C)CC2)cc1 | 2.1 (≈ 0.761 µg/mL)
c1ccc(NCc2ccc(CNc3ccccn3)cc2)nc1 | 0.9 (≈ 0.261 µg/mL)
CC(C)CC(C(=O)NCC(=O)CNS(=O)(=O)c1ccccn1)c1cccc(-c2ccccc2)c1 (stereo unspecified) | 1.2 (≈ 0.576 µg/mL)
Cc1cc(C)cc(-c2[nH]c3ccc(C(C)(C)C(=O)N4C5CCC4CC5)cc3c2CCN(C)CCCCc2ccncc2)c1 | 0.9 (≈ 0.519 µg/mL)
COc1ccccc1C[C@@H](C(=O)O)N1CCC(CN2CCC(Oc3ccc(Cl)c(Cl)c3)CC2)CC1 | 263 (≈ 137 µg/mL)
CC(C)Oc1cc(O[C@@H](C)Cc2ccccc2)cc(C(=O)Nc2ccc(C(=O)O)cn2)c1 | 9.1 (≈ 3.95 µg/mL)
CN(C)S(=O)(=O)n1c2ccccc2c2cc(NC(=O)CCc3ccncc3)ccc21 | 9.5 (≈ 4.01 µg/mL)
Cc1ccc(-c2nnc(-c3ccccc3)o2)cc1 | 6.2 (≈ 1.46 µg/mL)
Cc1ccc2nc(-c3ccccc3)cc(O)c2c1 | 22.9 (≈ 5.39 µg/mL)
CCN(C(=O)Cc1ccc(S(C)(=O)=O)cc1)C1CCN(CC[C@@H](c2ccccc2)N2CCN(S(=O)(=O)CC(F)(F)F)CC2)CC1 | 490 (≈ 330 µg/mL)

Compound | solubility thermodynamic [µM]
COc1ccc2c(Oc3ccc(CC(=O)Nc4cc(C)cc(CN(C)C)c4)c(OC)c3)ccnc2c1 | 1.8 (≈ 0.874 µg/mL)
Oc1cc(-c2ccccc2)nc2c(O)cccc12 | 41.7 (≈ 9.89 µg/mL)
COCCNS(=O)(=O)c1ccc(Nc2nccc(-c3cnc4ccccn34)n2)cc1 | 0.7 (≈ 0.297 µg/mL)
CS(=O)(=O)c1ccc(N2CCN(C(=O)[C@@H]3CCCC[C@H]3C(=O)NCC#N)CC2)cc1 | 275 (≈ 119 µg/mL)
c1ccc2c(c1)Cc1ccccc1O2 [XANTHENE] | 4.4 (≈ 0.802 µg/mL)
Cc1ccc(Oc2ccc(Nc3ncnc4cccc(O[C@@H](C)C(=O)N(C)C)c34)cc2C)cn1 | 26.3 (≈ 12 µg/mL)
O=C(Nc1ccccc1C(F)(F)F)N1CCN(c2ccccn2)CC1 | 190 (≈ 66.7 µg/mL)
CCn1cc(NC(=O)Cc2ccc(Oc3ccnc4cc(OC)c(OC)cc34)cn2)cn1 | 15.8 (≈ 6.85 µg/mL)
CC(C)Oc1cc(OCc2ccccc2F)cc(C(=O)Nc2ccc(C(=O)O)cn2)c1 | 61.7 (≈ 26.2 µg/mL)
CO[C@H]1CN(Cc2ccc(C(F)(F)F)cc2)CC[C@H]1N(C)C(=O)Cc1ccc(-n2cnnn2)cc1 | 263 (≈ 128 µg/mL)
COc1cc(OC2CN(C(C)=O)C2)ccc1Nc1ncc(Cl)c(-c2cnc3ccccn23)n1 | 1.7 (≈ 0.79 µg/mL)
COc1cc(N2CCCN(C(C)=O)CC2)ccc1Nc1ncc(Cl)c(-c2cnc3ccccn23)n1 | 2.4 (≈ 1.18 µg/mL)
COc1cc2c(Nc3ccc(Cl)cc3F)ncnc2cc1OCCn1ccnn1 | 1.5 (≈ 0.622 µg/mL)
COc1cccc(NC(=O)Cn2cc(Nc3ncnc4cc(OC)c(OC)cc34)cn2)c1 | 4.4 (≈ 1.91 µg/mL)
NC(=O)c1ccc(I)c([N+](=O)[O-])c1 [INIPARIB] | 417 (≈ 122 µg/mL)
Nc1ccccc1NC(=O)c1ccc(C2CCN(CCC(=O)Nc3ccccc3F)CC2)cc1 | 112 (≈ 51.7 µg/mL)
O=C(NC1CCCC1)C1CCCN(S(=O)(=O)c2cccc3cccnc23)C1 (stereo unspecified) | 8.7 (≈ 3.37 µg/mL)
CC1(C)C(=O)N(c2ccc(SC(F)(F)F)cc2)C(=O)N1Cc1ccncc1 | 43.7 (≈ 17.3 µg/mL)
COc1ccc(C(=O)Nc2ccccc2)cc1 | 18.2 (≈ 4.14 µg/mL)
COc1cc2c(Nc3ccc(Oc4ccccc4)cc3)c(C#N)cnc2cc1OCCCN1CCOCC1 | 0.9 (≈ 0.46 µg/mL)
O=C(Cc1ccc2ccccc2c1)Nc1cc(-c2ccc(Cl)cc2)n[nH]1 | 0.5 (≈ 0.181 µg/mL)
C[C@H](COc1cccc2ncnc(Nc3ccc(OCc4ccccn4)c(Cl)c3)c12)N(C)C(=O)CO | 14.1 (≈ 7.16 µg/mL)
NC(=O)Nc1sc(-c2ccccc2)cc1C(=O)NCc1ccccc1 | 0.8 (≈ 0.281 µg/mL)
COc1cccc(NC(=O)Cn2cc(Oc3ncnc4cc(OC)c(OC)cc34)cn2)c1 | 2.9 (≈ 1.26 µg/mL)

Compound | solubility thermodynamic [µM]
CN(C)CCCN(C)S(=O)(=O)c1ccc(Nc2nccc(-c3cnc4ccccn34)n2)cc1 | 309 (≈ 144 µg/mL)
CNC(=O)[C@@H](NC(=O)[C@H](CC(C)C)[C@H](OCc1cc2c(=O)[nH]c(C)nc2cc1Br)C(=O)NO)C(C)(C)C | 457 (≈ 266 µg/mL)
Nc1ccccc1NC(=O)c1ccc(-c2ncc(CN3CCC3)cc2Cl)cc1 | 1350 (≈ 530 µg/mL)
COc1cc2ncnc(Nc3cccc(Cl)c3F)c2cc1CN(C)C1(C(N)=O)CN(C)C1 | 51.3 (≈ 23.5 µg/mL)
COc1cc2c(Nc3ncc(CC(=O)Nc4ccccc4)s3)ncnc2cc1OCCCN1CCOCC1 | 0.4 (≈ 0.214 µg/mL)
NC(=O)c1ccccc1NC(=O)Nc1ccc(Cl)c(Cl)c1 | 1.5 (≈ 0.486 µg/mL)
C[C@@H](Oc1cccc2ncnc(Nc3ccc4c(cnn4Cc4cccc(F)c4)c3)c12)C(=O)N1CCOCC1 | 0.3 (≈ 0.158 µg/mL)
CN(C(=O)Cc1ccc(S(C)(=O)=O)cc1)[C@@H]1CCN(Cc2nc3cc(F)ccc3s2)C[C@@H]1F | 1.8 (≈ 0.888 µg/mL)
O=S(=O)(NCc1ccccc1)c1cccc2nonc12 | 141 (≈ 40.9 µg/mL)
O=C(CNC(=O)c1ccc(Cl)cc1)c1ccc(Br)cc1 | 0.5 (≈ 0.176 µg/mL)
COC[C@H](C)Oc1cc(Oc2ccc(OC)cc2)cc(C(=O)Nc2ccc(C(=O)O)cn2)c1 | 1510 (≈ 685 µg/mL)
COc1ccc(I)c(Sc2nc3c(N)ncnc3n2CCNCC(C)(C)C)c1 | 4 (≈ 2.05 µg/mL)
CS(=O)(=O)C1(c2cc(N3CCOCC3)nc(-c3cccc4[nH]ccc34)n2)CCOCC1 | 1.8 (≈ 0.797 µg/mL)
CS(=O)(=O)Cc1cc(N2CCOCC2)nc(-c2cnc3[nH]ccc3c2)n1 | 47.9 (≈ 17.9 µg/mL)
O=S(=O)(Nc1ccncc1)c1ccccc1 | 794 (≈ 186 µg/mL)
Cc1ccnc(NC(=O)CSc2ccccn2)c1 | 436 (≈ 113 µg/mL)
c1ccc(CSc2nnc(-c3ccco3)c(-c3ccco3)n2)cc1 | 5.2 (≈ 1.74 µg/mL)
Cc1ccccc1N(C)c1ccnc(Nc2cc(N3CCOCC3)cc(N3CCOCC3)c2)n1 | 30.9 (≈ 14.2 µg/mL)
COc1ccc2[nH]c3c(c2c1)CN(C(=O)[C@@H]1CCCC[C@H]1C(=O)NC1(C#N)CC1)CC3 | 813 (≈ 342 µg/mL)
Cc1sc(N2CCN(C(=O)[C@@H]3CCCC[C@H]3C(=O)NC3(C#N)CC3)CC2)nc1C(F)(F)F | 1070 (≈ 503 µg/mL)
COc1cc(Oc2ncnc3cc(OC)c(OC)cc23)ccc1CC(=O)Nc1cn(C)nc1C | 1.8 (≈ 0.834 µg/mL)
COc1cc2ncnc(Nc3ccc(F)c(Cl)c3)c2cc1OCCCn1ccnc1 | 2.5 (≈ 1.07 µg/mL)
COc1cccc(NC(=O)Cc2ccc(Oc3ncnc4cc(OC)c(OC)cc34)cc2)c1 | 2 (≈ 0.891 µg/mL)
Cc1cnc(NC(=O)CSc2nnc(C)s2)s1 | 70.8 (≈ 20.3 µg/mL)

Compound | solubility thermodynamic [µM]
Cc1ccccc1C(=O)NC1CCN(Cc2ccccc2)CC1 | 246 (≈ 75.7 µg/mL)
Cc1cc2oc(=O)cc(Cn3ccnc3)c2cc1C | 33.9 (≈ 8.62 µg/mL)
COc1ccc(Cl)c(Nc2ncnc3cc(OCCCN4CCN(C)CC4)cc(OC(C)C)c23)n1 | 347 (≈ 174 µg/mL)
CNC(=O)Cc1ccc2c(=O)cc(-c3cccnc3)[nH]c2c1 | 457 (≈ 134 µg/mL)
CCN(C(=O)Cc1ccc(S(C)(=O)=O)cc1)C1CCN(CCC(c2ccccc2)c2ccc(NS(=O)(=O)Cc3ccccc3)cc2)CC1 (stereo unspecified) | 2.3 (≈ 1.58 µg/mL)
Nc1cccc(S(=O)(=O)Nc2ccccc2)c1 | 1020 (≈ 254 µg/mL)
CS(=O)(=O)Nc1cccc(Nc2nccc(Nc3c(Cl)ccc4c3OCO4)n2)c1 | 7.2 (≈ 3.12 µg/mL)
COc1ccc(OC)c(NC(=O)Cc2cccs2)c1 | 74.1 (≈ 20.6 µg/mL)
COc1cccc(NC(=O)Cn2cc(Oc3ncnc4cc(OC)c(OCCN5CCCCC5)cc34)cn2)c1 | 141 (≈ 75.3 µg/mL)
C[C@H]1COCCN1c1cc(CS(C)(=O)=O)nc(-c2ccc3[nH]ccc3c2)n1 | 190 (≈ 73.6 µg/mL)
N#Cc1ccccc1COc1cc(OCCCN2CCCC2)ccc1C(=O)Nc1cccc(O)c1 | 363 (≈ 171 µg/mL)
CS(=O)(=O)c1ccc2c(c1)cc(C(=O)O)n2Cc1ccc(Cl)c(Cl)c1 | 1100 (≈ 437 µg/mL)
COc1cc(-c2cnc(N)c(-c3nc4ccccc4[nH]3)c2)cc(OC)c1OC | 0.5 (≈ 0.188 µg/mL)
CN1CCC(Oc2cc(OCCF)cc3ncnc(Nc4c(Cl)ccc5c4OCO5)c23)CC1 | 759 (≈ 360 µg/mL)
CN(C(=O)Cc1ccc(S(C)(=O)=O)cc1F)C1CCN(Cc2ccc(C(F)(F)F)cc2)CC1 | 74.1 (≈ 36.1 µg/mL)
COc1cc(NS(=O)(=O)c2ccc(N)cc2)nc(OC)n1 [SULFADIMETHOXINE] | 1290 (≈ 400 µg/mL)
CNC(=O)c1ccc(CC(=O)N(C)C2CCN(Cc3ccc(C(F)(F)F)cc3)CC2)cc1 | 107 (≈ 48 µg/mL)
CN(C(=O)c1ccco1)c1nnc(C23CC4CC(CC(C4)C2)C3)s1 | 3 (≈ 1.03 µg/mL)
CCc1cc(Nc2nc(NCc3cc(-c4ccccn4)no3)ncc2Br)n[nH]1 | 3.8 (≈ 1.68 µg/mL)
COc1cc(N2CCNC(=O)C2)ccc1Nc1ncc(Cl)c(-c2cnc3ccccn23)n1 | 4.9 (≈ 2.2 µg/mL)
CN(C(=O)Cc1ccc(-n2cnnn2)cc1)[C@@H]1CCN(Cc2ccc(C(F)(F)F)cc2)C[C@@H]1F | 16.2 (≈ 7.72 µg/mL)
COc1ccc(Cc2nnc(N)s2)cc1 | 363 (≈ 80.3 µg/mL)
C#CCN(Cc1cc2c(=O)[nH]c(C)nc2cc1C)c1ccc(C(=O)NCc2cccc([N+](=O)[O-])c2)c(F)c1 | 0.1 (≈ 0.0514 µg/mL)
Nc1ccc2c(c1)cc(C(=O)O)n2Cc1ccc(Cl)c(Cl)c1 | 347 (≈ 116 µg/mL)
